Laboratory results taken from patent US20250188032A1, “NITROGEN-CONTAINING HETEROCYCLIC COMPOUNDS AND USES THEREOF” (BNH RESEARCH CO., LTD., priority 2022, published 2025).

How the values were obtained:
[1] = system: BDNF and GluN2B expression in 293T cells; assay: RT-PCR of BDNF and GluN2B mRNA in 293T cells; format: cell-based, human; conditions: 6 hours after treating 293T cells, vs untreated group
Procedure: RT-PCR was used to measure the amount of BDNF and GluN2B in response to compounds of the present disclosure. 293T cells were dissociated using 0.05% Trypsin-EDTA solution and seeded in 24 well or 6 well dishes for RNA work. After incubation at 37° C. in a humidified atmosphere with 5% CO2 for 24 hours, the culture medium was replaced by a medium containing a series of concentrations of tested compounds diluted with the DMEM without FBS. Time course experiments were performed. The same volume of DMSO was used for negative control.
RNA was isolated from the cells after the compound treatment. After removing growth media, 0.3 to 0.4 mL of TRIzol™ per 1×10^5 to 10^7 cells were added directly to the culture dish to lyse the cells. […] RNA concentration was determined with the Thermo Scientific™ ρDrop™ plate. RNA quality was determined by measuring A230/260 and A260/280 ratio. […]
The PCR product was analyzed by agarose gel electrophoresis. […]
The BnH12 series drug according to the present disclosure was synthesized as a compound targeting HDAC4, which inhibits the expression of BDNF. […] In addition, it is known that the increase in the expression of BDNF increases the expression of GluN2B, and the mRNA level of GluN2B was also measured together with BDNF to measure the efficacy of BnH12001 in degrading HDAC4.

[2] = system: APP/PS1 mice sensory cerebral cortex; assay: TC potency and GABA/AMPA ratio in sensory cortex of Alzheimer's animal model; format: in vivo
Procedure: For intravenous injection, the tail vein injection method was used. […] In the drug injection test, the compound was administered once a day for about 11 to 13 days. 5 mice were used for the compound administration group and the control group, respectively.
For TC or hippocampus slice preparation. 9 to 10 weeks-old male C57BL/6J mice were anesthetized with isoflurane. Then, the brain was rapidly cooled via transcardial perfusion with ice-cold sucrose-artificial cerebrospinal fluid (aCSF). The brain was removed and placed in ice-cold sucrose aCSF. Paracoronal slices were prepared at an angle of 50° relative to the midline on a ramp at an angle of 10°. […]
For the minimal stimulation protocol (Potency), VB thalamic stimulation intensity was adjusted to find the lowest intensity that elicited a mixture of synaptic responses and failures. Failure rate was calculated as the number of failures/total number of trials. Potency was calculated as the mean EPSC peak amplitude excluding failures (see Chittajallu & Isaac, 2010, Emergence of cortical inhibition by coordinated sensory-driven plasticity at distinct synaptic loci, DOI: 10.1038/nn.2639; see Isaac et al., 1997, Silent Synapses during Development of Thalamocortical Inputs, https://doi.org/10.1016/S08966273((0)80267-6; and see Stevens & Wang, 1995, Facilitation and depression at single central synapses, DOI: 10.1016/08966273(95)90223-6). […]

Structure (SMILES) | BDNF mRNA level [1] | GluN2B mRNA level [1] | Balance of excitation/inhibition (GABA/AMPA ratio) [2] | Excitatory TC synaptic potency (TC potency) [2]
CC1CCC(C(=O)O)CN1C(=O)Cc1ccc(F)cc1Cl (racemic) [BnH12001, 1-(2-(2-chloro-4-fluorophenyl)acetyl)-6-methylpiperidine-3-carboxylic acid] | significantly increased | significantly increased |  | 
C[C@@H]1CC[C@H](C(=O)O)CN1C(=O)Cc1ccc(F)cc1Cl [BnH12001 enantiomer (3S,6R, 98%<), (3S,6R)-1-(2-(2-chloro-4-fluorophenyl)acetyl)-6-methylpiperidine-3-carboxylic acid] |  |  | maintaining the balance of excitation/inhibition | increased the excitatory TC synaptic potency
